Reference: PubChem BioAssay (NCI)
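The compound was tested at five concentrations on cells cultured in 96-well plates, with a 48-hour exposure period. GI50 is the concentration that inhibits growth by half. TGI is the concentration that stops growth completely.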

What was measured:
Test in all cases: NCI-60 cell line screen, 48 h
NCI-H23 lung = test system: NCI-H23 lung
HOP-92 NSCLC = test system: HOP-92 NSCLC
MDA-MB-231 breast = test system: MDA-MB-231 breast
CCRF-CEM leukemia = test system: CCRF-CEM leukemia
HCC-2998 colon = test system: HCC-2998 colon
A549 NSCLC = test system: A549 NSCLC
SNB-75 CNS = test system: SNB-75 CNS
SR leukemia = test system: SR leukemia
CAKI-1 renal = test system: CAKI-1 renal
OVCAR-5 ovarian = test system: OVCAR-5 ovarian
A498 renal = test system: A498 renal
UACC-257 melanoma = test system: UACC-257 melanoma
SK-MEL-5 melanoma = test system: SK-MEL-5 melanoma
MCF7 breast = test system: MCF7 breast
M14 melanoma = test system: M14 melanoma
EKVX NSCLC = test system: EKVX NSCLC
786-0 renal = test system: 786-0 renal
RXF 393 renal = test system: RXF 393 renal
LOX IMVI melanoma = test system: LOX IMVI melanoma
DU-145 prostate = test system: DU-145 prostate
U251 CNS = test system: U251 CNS
HL-60(TB) leukemia = test system: HL-60(TB) leukemia
NCI-H226 lung = test system: NCI-H226 lung
HS 578T breast = test system: HS 578T breast
NCI-H460 lung = test system: NCI-H460 lung
K-562 leukemia = test system: K-562 leukemia
T-47D breast = test system: T-47D breast
PC-3 prostate = test system: PC-3 prostate
OVCAR-4 ovarian = test system: OVCAR-4 ovarian
HT29 colon = test system: HT29 colon
SK-OV-3 ovarian = test system: SK-OV-3 ovarian
SW-620 colon = test system: SW-620 colon
ACHN renal = test system: ACHN renal
MOLT-4 leukemia = test system: MOLT-4 leukemia
HOP-62 NSCLC = test system: HOP-62 NSCLC
OVCAR-8 ovarian = test system: OVCAR-8 ovarian
SK-MEL-2 melanoma = test system: SK-MEL-2 melanoma
SN12C renal = test system: SN12C renal
MALME-3M melanoma = test system: MALME-3M melanoma
UO-31 renal = test system: UO-31 renal
COLO 205 colon = test system: COLO 205 colon
KM12 colon = test system: KM12 colon
SF-268 CNS = test system: SF-268 CNS
UACC-62 melanoma = test system: UACC-62 melanoma
HCT-15 colon = test system: HCT-15 colon
MDA-MB-435 = test system: MDA-MB-435
SNB-19 CNS = test system: SNB-19 CNS
OVCAR-3 ovarian = test system: OVCAR-3 ovarian
TK-10 renal = test system: TK-10 renal
RPMI-8226 leukemia = test system: RPMI-8226 leukemia
BT-549 breast = test system: BT-549 breast
NCI/ADR-RES ovarian = test system: NCI/ADR-RES ovarian
SK-MEL-28 melanoma = test system: SK-MEL-28 melanoma
SF-295 CNS = test system: SF-295 CNS
IGROV1 ovarian = test system: IGROV1 ovarian
NCI-H522 lung = test system: NCI-H522 lung
HCT-116 colon = test system: HCT-116 colon
SF-539 CNS = test system: SF-539 CNS

Compound: COc1ccc(C(O)c2cc3c(N)c(C(=O)Nc4ccc(Cl)cc4)sc3nc2C)cc1 (stereo unspecified)
- GI50 (NCI-H23 lung): 5.07 µM
- TGI (NCI-H23 lung): 52.5 µM
- GI50 (HOP-92 NSCLC): 2.37 µM
- TGI (HOP-92 NSCLC): 18.3 µM
- GI50 (MDA-MB-231 breast): 4.9 µM
- TGI (MDA-MB-231 breast): 28.8 µM
- GI50 (CCRF-CEM leukemia): 2.47 µM
- TGI (CCRF-CEM leukemia): > 100 µM
- GI50 (HCC-2998 colon): 3.04 µM
- TGI (HCC-2998 colon): 20.8 µM
- GI50 (A549 NSCLC): 3.53 µM
- TGI (A549 NSCLC): 14.9 µM
- GI50 (SNB-75 CNS): 1.88 µM
- TGI (SNB-75 CNS): 7.25 µM
- GI50 (SR leukemia): 0.44 µM
- TGI (SR leukemia): > 100 µM
- GI50 (CAKI-1 renal): 2.79 µM
- TGI (CAKI-1 renal): 15.6 µM
- GI50 (OVCAR-5 ovarian): 3.97 µM
- TGI (OVCAR-5 ovarian): 25.5 µM
- GI50 (A498 renal): 3 µM
- TGI (A498 renal): 12.4 µM
- GI50 (UACC-257 melanoma): 4.99 µM
- TGI (UACC-257 melanoma): 57.5 µM
- GI50 (SK-MEL-5 melanoma): 2.74 µM
- TGI (SK-MEL-5 melanoma): 10.2 µM
- GI50 (MCF7 breast): 0.707 µM
- TGI (MCF7 breast): 17.2 µM
- GI50 (M14 melanoma): 1.74 µM
- TGI (M14 melanoma): 29.9 µM
- GI50 (EKVX NSCLC): 3.88 µM
- TGI (EKVX NSCLC): 30.7 µM
- GI50 (786-0 renal): 8.2 µM
- TGI (786-0 renal): 31.8 µM
- GI50 (RXF 393 renal): 2.25 µM
- TGI (RXF 393 renal): 11.6 µM
- GI50 (LOX IMVI melanoma): 2.08 µM
- TGI (LOX IMVI melanoma): 13.2 µM
- GI50 (DU-145 prostate): 2.71 µM
- TGI (DU-145 prostate): 7.66 µM
- GI50 (U251 CNS): 2.28 µM
- TGI (U251 CNS): 15.8 µM
- GI50 (HL-60(TB) leukemia): 1.91 µM
- TGI (HL-60(TB) leukemia): 9.63 µM
- GI50 (NCI-H226 lung): 2.85 µM
- TGI (NCI-H226 lung): 9.47 µM
- GI50 (HS 578T breast): 1.82 µM
- TGI (HS 578T breast): 5.3 µM
- GI50 (NCI-H460 lung): 2.3 µM
- TGI (NCI-H460 lung): 6.25 µM
- GI50 (K-562 leukemia): 0.694 µM
- TGI (K-562 leukemia): > 100 µM
- GI50 (T-47D breast): 3.29 µM
- TGI (T-47D breast): 50.5 µM
- GI50 (PC-3 prostate): 3.27 µM
- TGI (PC-3 prostate): 22.2 µM
- GI50 (OVCAR-4 ovarian): 2.42 µM
- TGI (OVCAR-4 ovarian): 7.47 µM
- GI50 (HT29 colon): 2.49 µM
- TGI (HT29 colon): 8.73 µM
- GI50 (SK-OV-3 ovarian): 3.21 µM
- TGI (SK-OV-3 ovarian): 15.5 µM
- GI50 (SW-620 colon): 2.62 µM
- TGI (SW-620 colon): 37.6 µM
- GI50 (ACHN renal): 3.53 µM
- TGI (ACHN renal): 15.7 µM
- GI50 (MOLT-4 leukemia): 3.09 µM
- TGI (MOLT-4 leukemia): > 100 µM
- GI50 (HOP-62 NSCLC): 3.24 µM
- TGI (HOP-62 NSCLC): 19.2 µM
- GI50 (OVCAR-8 ovarian): 4.02 µM
- TGI (OVCAR-8 ovarian): 26.7 µM
- GI50 (SK-MEL-2 melanoma): 8.6 µM
- TGI (SK-MEL-2 melanoma): 69.6 µM
- GI50 (SN12C renal): 5.53 µM
- TGI (SN12C renal): 24.9 µM
- GI50 (MALME-3M melanoma): 2.04 µM
- TGI (MALME-3M melanoma): 18.9 µM
- GI50 (UO-31 renal): 3.8 µM
- TGI (UO-31 renal): 23 µM
- GI50 (COLO 205 colon): 3.99 µM
- TGI (COLO 205 colon): 23 µM
- GI50 (KM12 colon): 1.64 µM
- TGI (KM12 colon): 7.1 µM
- GI50 (SF-268 CNS): 3.96 µM
- TGI (SF-268 CNS): 19.6 µM
- GI50 (UACC-62 melanoma): 1.86 µM
- TGI (UACC-62 melanoma): 32.8 µM
- GI50 (HCT-15 colon): 0.719 µM
- TGI (HCT-15 colon): 12.9 µM
- GI50 (MDA-MB-435): 0.317 µM
- TGI (MDA-MB-435): 1.17 µM
- GI50 (SNB-19 CNS): 4.16 µM
- TGI (SNB-19 CNS): 44.6 µM
- GI50 (OVCAR-3 ovarian): 2 µM
- TGI (OVCAR-3 ovarian): 4.78 µM
- GI50 (TK-10 renal): 7.85 µM
- TGI (TK-10 renal): 43.9 µM
- GI50 (RPMI-8226 leukemia): 2.22 µM
- TGI (RPMI-8226 leukemia): 9.32 µM
- GI50 (BT-549 breast): 3.42 µM
- TGI (BT-549 breast): 21.6 µM
- GI50 (NCI/ADR-RES ovarian): 3.86 µM
- TGI (NCI/ADR-RES ovarian): 28 µM
- GI50 (SK-MEL-28 melanoma): 6.49 µM
- TGI (SK-MEL-28 melanoma): 57.7 µM
- GI50 (SF-295 CNS): 2.14 µM
- TGI (SF-295 CNS): 11.6 µM
- GI50 (IGROV1 ovarian): 3.22 µM
- TGI (IGROV1 ovarian): 28.6 µM
- GI50 (NCI-H522 lung): 4.05 µM
- TGI (NCI-H522 lung): 38.1 µM
- GI50 (HCT-116 colon): 2.01 µM
- TGI (HCT-116 colon): 14.3 µM
- GI50 (SF-539 CNS): 2.4 µM
- TGI (SF-539 CNS): 8.08 µM
